Measurements reported in patent US20110150980A1, “CGRP ANALOG” (VasoGenix Pharmaceuticals, Inc., priority 2009, published 2011).

Columns and labels:
[1] = tested on: non-sedated, non-naïve cynomolgus monkeys; assay: Intravenous infusion in non-sedated, telemeterized non-human primates: blood pressure, heart rate, ECG (Example 2); format: in vivo
Description: Peptides were synthesized as in Example 1. […] Two non-naïve, telemeterized, male non-human primates (NHP “a” and “b”) were used for the test article(s) dosing regimen. […] Following a stabilized baseline period of approximately 30 minutes, one of the test article(s) was administered as an intravenous infusion via a femoral vein vascular access port (VAP) using a Pegasus PCA infusion pump for a period of 30 or 60 minutes. A minimum period of 30 minutes was allotted for the hemodynamic parameters to return to baseline prior to the next test article infusion dose. The process was repeated for each of the stated test articles. The same procedure was followed for the 1 hour infusion with 1 hour allotted for parameters to return to base line.
The non-human primates were previously surgically prepared with telemetry transducers, type TL11M2-D70-PCT (Data Sciences International). The acquisition and analysis was done using a Ponemah (Version 4.8 or higher) data acquisition and analysis system installed on the hard drive of a computer. The computer was equipped with disk drive for file back up on readable write-once only optical media (CD-R or DVD-R).
Prior to the first dose administration, baseline data was acquired. For each subsequent dose, data was collected for approximately 30 min postdose. Prior to the next dose, the hemodynamic parameters were allowed to return to a stable baseline±10%.
Systolic blood pressure (SYS or SBP), diastolic blood pressure (DBP), mean arterial pressure (MAP), heart rate (HR), and all lead II ECG variables were recorded. The telemetry data files were transferred to an Excel (MicroSoft® Version 2003) spreadsheet. The following variables from the lead II ECG were measured: PR interval, QRS duration, QT interval, RR interval, and QTcF interval (calculated as
A visual inspection of the entire collected ECG waveform for disturbances in rhythm and waveform morphology was performed. The data for selected time points were analyzed and assessed on completion of data acquisition and were the average of at least 30 beats (ABP and ECG) of data at the selected analysis time, when possible. The time points for both hemodynamic and ECG data analysis were an initial 30 min baseline prior to the first dose, at a 10 min during each infusion postdose interval relative to end of each infusion, and time points prior to the next test article infusion for each test compound.
Non-human primates were selected because they have the same RAMP 1-CGRP receptor complex as humans.

rats = conditions: 19 ng/kg/min; cited from earlier work
[2] = NHP a, dose day 2, during 30 minute infusions of 0.024 ug/kg/min
[3] = NHP a, dose day 3, during 30 minute infusions of 0.024 ug/kg/min
[4] = NHP a, dose day 3, during 1 hour infusion of 0.024 ug/kg/min
[5] = NHP b, dose day 2, during 30 minute infusions of 0.024 ug/kg/min
[6] = NHP b, dose day 3, during 30 minute infusions of 0.024 ug/kg/min
[7] = NHP b, dose day 3, during 1 hour infusion of 0.024 ug/kg/min
[8] = average of a 2, b 2, a 3, b 3, during 30 minute infusions of 0.024 ug/kg/min
[9] = average of a3, b3, during 1 hour infusion of 0.024 ug/kg/min

Substance: ACNTATCVTHRLAGLLSRSGGMVKSNFVPTNVGSKAF-NH2 [βCGRP]
- course of heart rate during 1 hour infusion ([1]; 1 hour infusion of 0.024 ug/kg/min, after 30 minutes): Heart rate continues to drop after 30 minutes
- Percent change in HR, a 2 [1, 2]: 1.2%
- Percent change in mean BP, a 2 [1, 2]: −8.8%
- Percent change in systolic BP, a 2 [1, 2]: −7.4%
- Percent change in HR, a 3 [1, 3]: −13.6%
- Percent change in mean BP, a 3 [1, 3]: −16.8%
- Percent change in systolic BP, a 3 [1, 3]: −12.2%
- Percent change in HR at 30 minutes, a3 [1, 4]: −13.6%
- Percent change in HR at 60 minutes, a3 1 hr [1, 4]: −10.7%
- Percent change in mean systolic BP at 30 minutes, a3 [1, 4]: −16.8%
- Percent change in mean systolic BP at 60 minutes, a3 1 hr [1, 4]: 0.0%
- Percent change in systolic BP at 30 minutes, a3 [1, 4]: −12.2%
- Percent change in systolic BP at 60 minutes, a3 1 hr [1, 4]: −0.8%
- Percent change in HR, b 2 [1, 5]: −21.3%
- Percent change in mean BP, b 2 [1, 5]: −6.7%
- Percent change in systolic BP, b 2 [1, 5]: −8.1%
- Percent change in HR, b 3 [1, 6]: −22.0%
- Percent change in mean BP, b 3 [1, 6]: −23.4%
- Percent change in systolic BP, b 3 [1, 6]: −23.2%
- Percent change in HR at 30 minutes, b3 [1, 7]: −22.0%
- Percent change in HR at 60 minutes, b3 1 hr [1, 7]: −18.1%
- Percent change in mean systolic BP at 30 minutes, b3 [1, 7]: −23.4%
- Percent change in mean systolic BP at 60 minutes, b3 1 hr [1, 7]: −10.7%
- Percent change in systolic BP at 30 minutes, b3 [1, 7]: −23.2%
- Percent change in systolic BP at 60 minutes, b3 1 hr [1, 7]: −10.1%
- Percent change in mean HR, a 2 ([1]; Table 14, NHP a, dose day 2, during 30 minute infusions of 0.024 ug/kg/min): 1.2%
- Percent change in mean HR, a 3 ([1]; Table 14, NHP a, dose day 3, during 30 minute infusions of 0.024 ug/kg/min): −13.6%
- Percent change in mean HR, b 2 ([1]; Table 14, NHP b, dose day 2, during 30 minute infusions of 0.024 ug/kg/min): −21.3%
- Percent change in mean HR, b 3 ([1]; Table 14, NHP b, dose day 3, during 30 minute infusions of 0.024 ug/kg/min): −22.0%
- Percent change in mean HR, HR ([1]; Table 14, average of a 2, b 2, a 3, b 3, during 30 minute infusions of 0.024 ug/kg/min): −13.9%
- Percent change in mean HR at 30 minutes, a3 ([1]; Table 24, NHP a, dose day 3, during 1 hour infusion of 0.024 ug/kg/min): −13.6%
- Percent change in mean HR at 30 minutes, b3 ([1]; Table 24, NHP b, dose day 3, during 1 hour infusion of 0.024 ug/kg/min): −22.0%
- Percent change in mean HR at 30 minutes, HR T30 ([1]; Table 24, average of a3, b3, during 1 hour infusion of 0.024 ug/kg/min): −17.8%
- Percent change in mean HR at 60 minutes, a3 1 hr ([1]; Table 25, NHP a, dose day 3, during 1 hour infusion of 0.024 ug/kg/min): −10.7%
- Percent change in mean HR at 60 minutes, b3 1 hr ([1]; Table 25, NHP b, dose day 3, during 1 hour infusion of 0.024 ug/kg/min): −18.1%
- Percent change in mean HR at 60 minutes, HR T60 ([1]; Table 25, average of a3, b3, during 1 hour infusion of 0.024 ug/kg/min): −14.4%
- Percent change in HR, HR [1, 8]: −13.9%
- Percent change in mean BP, BP [1, 8]: −13.9%
- Percent change in systolic BP, BP [1, 8]: −12.7%
- Percent change in HR at 30 minutes, HR T30 [1, 9]: −17.8%
- Percent change in HR at 60 minutes, HR T60 [1, 9]: −14.4%
- Percent change in mean systolic BP at 30 minutes, BP T30 [1, 9]: −20.1%
- Percent change in mean systolic BP at 60 minutes, BP T60 [1, 9]: −5.4%
- Percent change in systolic BP at 30 minutes, T30 [1, 9]: −17.7%
- Percent change in systolic BP at 60 minutes, T60 [1, 9]: −5.4%
- effect on heart rate ([1]; non-sedated cynomolgus monkeys, IV infusion): maintenance of pre-administration heart rate, and in some cases, reduction in heart rate
- heart rate and blood pressure effect (rats): tachycardia with no significant hypotension
